Results from ChEMBL document CHEMBL1130796, “7,8-Methylenedioxy-4H-2,3-benzodiazepin-4-ones as novel AMPA receptor antagonists” (Bioorg Med Chem Lett, 1998).
Active and inactive are the calls of the source. No cut-off for these calls is given here.

Columns and labels:
[1] = organism: Mus musculus; assay: Compound was evaluated for anticonvulsant activity against audiogenic seizures in DBA/2 mice( clonic phase); format: functional
[2] = organism: Mus musculus; assay: Compound was evaluated for anticonvulsant activity against AMPA induced seizures in DBA/2 mice( clonic phase); format: functional
[3] = organism: Mus musculus; assay: Compound was evaluated for anticonvulsant activity against AMPA induced seizures in DBA/2 mice( tonic phase); format: functional
[4] = organism: Mus musculus; assay: Compound was evaluated for anticonvulsant activity against MES induced seizures(tonic phase) in swiss mice; format: functional
[5] = organism: Mus musculus; assay: Compound was evaluated for anticonvulsant activity against PTZ induced seizures (clonic phase) in swiss mice; format: functional
[6] = organism: Mus musculus; assay: Compound was evaluated for anticonvulsant activity against audiogenic induced seizures after pretreatment with aniracetam (clonic phase); format: functional
[7] = organism: Mus musculus; assay: Compound was evaluated for anticonvulsant activity against audiogenic induced seizures after pretreatment with aniracetam (tonic phase); format: functional
[8] = Compound was evaluated for toxic dose on locomotor assessed by rotarod test in mice; format: ADME; settings: mouse, in vivo
[9] = organism: Mus musculus; assay: Compound was evaluated for anticonvulsant activity against audiogenic seizures in DBA/2 mice( tonic phase); format: functional
[10] = Ratio between TD50 and ED50 from the clonic phase of the audiogenic seizures was determined; format: ADME
[11] = organism: Mus musculus; assay: Compound was evaluated for anticonvulsant activity against audiogenic induced seizures after pretreatment with aniracetam (clonic phase); ND means not detected; format: functional, organism-based
[12] = organism: Mus musculus; assay: Compound was evaluated for anticonvulsant activity against audiogenic induced seizures after pretreatment with aniracetam (tonic phase); ND means not detected; format: functional, organism-based
[13] = organism: Mus musculus; assay: Compound was evaluated for anticonvulsant activity against audiogenic induced seizures after pretreatment with aniracetam (tonic phase); p< 0.01; format: functional
[14] = organism: Mus musculus; assay: Compound was evaluated for anticonvulsant activity against audiogenic induced seizures after pretreatment with aniracetam (clonic phase); p< 0.01; format: functional
[15] = organism: Mus musculus; assay: Compound was evaluated for anticonvulsant activity against audiogenic induced seizures after pretreatment with aniracetam (tonic phase); p<0.01; format: functional
[16] = organism: Mus musculus; assay: Compound was evaluated for anticonvulsant activity against audiogenic induced seizures after pretreatment with aniracetam (clonic phase); p<0.01; format: functional
[17] = organism: Mus musculus; assay: Compound was evaluated for anticonvulsant activity against audiogenic induced seizures after pretreatment with aniracetam (tonic phase); p <0.01; format: functional
[18] = organism: Mus musculus; assay: Compound was evaluated for anticonvulsant activity against audiogenic induced seizures after pretreatment with aniracetam (clonic phase); p <0.01; format: functional

Work on `COc1cc2c(cc1OC)C(c1ccccc1)=NNC(=O)C2` yielded an ED50 [1] of 10 mg/kg, an ED50 [2] of 18.5 mg/kg and an ED50 [3] of 11.9 mg/kg. For the same molecule, the ED50 [4] was 10.6 mg/kg, the ED50 [5] was 19.1 mg/kg and the ED50 [6] was 60.2 mg/kg. The ED50 [7] was 44 mg/kg and the TD50 [8] was 42.1 mg/kg.

In the case of `COc1ccc(C2=NNC(=O)Cc3cc4c(cc32)OCO4)cc1`, the ED50 [1] is reported as > 37.2 mg/kg, the ED50 [9] is reported as > 37.2 mg/kg and the TD50 [8] is reported as > 62.1 mg/kg.

`O=C1Cc2cc3c(cc2C(c2ccc(O)cc2)=NN1)OCO3` showed an ED50 [1] of 15.5 mg/kg, an ED50 [9] of 14.7 mg/kg and a TD50 [8] of 44.7 mg/kg. The selectivity ratio [10] was 2.9.

Work on `O=C1Cc2cc3c(cc2C(c2ccccc2)=NN1)OCO3` yielded an ED50 [1] of 12.1 mg/kg, an ED50 [9] of 11.4 mg/kg and an ED50 [2] of 20.8 mg/kg. It also gave an ED50 [3] of 16.8 mg/kg, an ED50 [4] of 12.6 mg/kg and an ED50 [5] of 23.1 mg/kg. The ED50 [11] was “inactive”, the ED50 [12] was “inactive” and the TD50 [8] was 44.6 mg/kg.

`Nc1ccc(C2=NNC(=O)Cc3cc4c(cc32)OCO4)cc1` showed an ED50 [1] of 6.44 mg/kg, an ED50 [9] of 3.22 mg/kg and an ED50 [13] of 11.7 mg/kg. For the same molecule, the ED50 [2] was 11.2 mg/kg, the ED50 [3] was 8.41 mg/kg and the ED50 [4] was 9.48 mg/kg. For the same molecule, the ED50 [5] was 21.2 mg/kg, the ED50 [14] was 18.5 mg/kg and the TD50 [8] was 29.3 mg/kg.

Work on `COc1cc2c(cc1OC)C(c1cccc(N)c1)=NNC(=O)C2` yielded a TD50 [8] of 15.9 mg/kg.

For `CC1=NN=C(c2ccc(N)cc2)c2cc3c(cc2C1)OCO3` [GYKI-52466], the ED50 [15] was 29.3 mg/kg, the ED50 [2] was 16.8 mg/kg and the ED50 [3] was 11.9 mg/kg. The ED50 [5] was 20 mg/kg, the ED50 [16] was 39.3 mg/kg and the TD50 [8] was 22.3 mg/kg.

`COc1cc2c(cc1OC)C(c1ccc(N)cc1)=NNC(=O)C2` showed an ED50 [17] of 18 mg/kg, an ED50 [2] of 9.93 mg/kg and an ED50 [3] of 7.73 mg/kg. For the same molecule, the ED50 [4] was 4.92 mg/kg, the ED50 [5] was 6.99 mg/kg and the ED50 [18] was 20.2 mg/kg. It also gave a TD50 [8] of 17.4 mg/kg.

Molecule `Nc1cccc(C2=NNC(=O)Cc3cc4c(cc32)OCO4)c1` has an ED50 [1] of 5.32 mg/kg, an ED50 [9] of 3.74 mg/kg and an ED50 [2] of 8.62 mg/kg. For the same molecule, the ED50 [3] was 7.03 mg/kg, the ED50 [4] was 5.7 mg/kg and the ED50 [5] was 11.9 mg/kg. The ED50 [11] was “inactive”, the ED50 [12] was “inactive” and the TD50 [8] was 29.8 mg/kg.
